Experimental data published in PMC6284057, “Combined Antibacterial Effects of Goat Cathelicidins With Different Mechanisms of Action” (Frontiers in Microbiology, 2018).
≈ marks a conversion by molar mass, not a printed value. Where two headings read alike, the source gives them in different places.

Assays:
K. pneumoniae (CI 287) = format: cell-based, Klebsiella pneumoniae; conditions: Mueller-Hinton broth, 10^6 CFU/ml, 0.1% BSA, 37°C, 24 h, median of at least 3 experiments
Experimental: (§1) Antimicrobial assay was performed as described previously ([Panteleev et al., 2017b]). Briefly, mid-log phase bacterial test cultures were diluted with the 2× Mueller-Hinton broth (MH, Sigma) supplemented with 1.8% NaCl or without it so that to reach a final cell concentration of 10^6 CFU/ml. 50 μl aliquots of the obtained bacterial suspension were added to 50 μl of the peptide solutions serially diluted with 0.1% water solution of bovine serum albumin (BSA) in 96-well flat-bottom polystyrene microplates (Eppendorf #0030730011). After incubation at 37°C and 900 rpm for 24 h the minimum inhibitory concentrations (MIC) were determined as the lowest peptide concentrations that prevented growth of a test microorganism observed as visible turbidity. The results were expressed as the median values determined on the basis of at least three independent experiments performed in triplicate.

B. subtilis B-886 = format: cell-based, Bacillus subtilis; conditions: Mueller-Hinton broth, 10^6 CFU/ml, 0.1% BSA, 37°C, 24 h, median of at least 3 experiments
Experimental: as §1

S. aureus 209P = format: cell-based, Staphylococcus aureus; conditions: Mueller-Hinton broth, 10^6 CFU/ml, 0.1% BSA, 37°C, 24 h, median of at least 3 experiments
Experimental: as §1

P. aeruginosa PAO1 = format: cell-based, Pseudomonas aeruginosa; conditions: Mueller-Hinton broth, 10^6 CFU/ml, 0.1% BSA, 37°C, 24 h, median of at least 3 experiments
Experimental: as §1

E. coli C600 = format: cell-based, Escherichia coli; conditions: Mueller-Hinton broth, 10^6 CFU/ml, 0.1% BSA, 37°C, 24 h, median of at least 3 experiments
Experimental: as §1

E. coli ML-35p = format: cell-based, Escherichia coli; conditions: Mueller-Hinton broth, 10^6 CFU/ml, 0.1% BSA, 37°C, 24 h, median of at least 3 experiments
Experimental: as §1

M. luteus B-1314 = format: cell-based, Micrococcus luteus; conditions: Mueller-Hinton broth, 10^6 CFU/ml, peptide diluted in 0.1% BSA, 37°C, 24 h, median of at least 3 experiments in triplicate
Experimental: as §1

[1] = system: A. baumannii (XDR CI 2675); test: microbe, parasite or virus in culture; format: cell-based, Acinetobacter baumannii; conditions: read-out: Minimum inhibitory concentration
Experimental: as §1

[2] = system: all the cells tested (hRBC, HEF, HEK293T); test: Hemolysis and cytotoxicity assay; format: cell-based, human; conditions: positive control
Experimental: Hemolytic activity of the peptides was tested against the fresh suspension of human red blood cells (hRBC) using the hemoglobin release assay as described previously ([Panteleev et al., 2016]). Three experiments were performed with the hRBC from blood samples obtained from independent donors. The obtained data were represented as average means with standard deviations. The cytotoxicity of the peptides against HEK293T (transformed human embryonic kidney cells) and HEF (human embryonic fibroblasts) cell lines was studied using the colorimetric 3-(4,5-dimethylthiazol-2-yl)-2,5-diphenyltetrazolium bromide (MTT) dye reduction assay according to ([Panteleev and Ovchinnikova, 2017]). Three independent experiments were performed for each peptide. Half maximal inhibitory concentration (IC50) values were estimated as described previously ([Kuzmin et al., 2018]).

[3] = system: P. aeruginosa (XDR CI 1049); test: microbe, parasite or virus in culture; format: cell-based, Pseudomonas aeruginosa; conditions: Pseudomonas aeruginosa; Table S2, XDR clinical isolate; NaCl content of medium not stated; read-out: Minimum inhibitory concentration
Experimental: as §1

[4] = system: P. mirabilis (XDR CI 3423); test: microbe, parasite or virus in culture; format: cell-based, Proteus mirabilis; conditions: Proteus mirabilis; Table S2, XDR clinical isolate; NaCl content of medium not stated; read-out: Minimum inhibitory concentration
Experimental: as §1

E. coli (XDR CI 1057) = test: microbe, parasite or virus in culture; format: cell-based, Escherichia coli; conditions: Escherichia coli, read-out: Minimum inhibitory concentration
Experimental: as §1

[5] = system: K. pneumoniae (XDR CI 1056); test: microbe, parasite or virus in culture; format: cell-based, Klebsiella pneumoniae; conditions: Klebsiella pneumoniae; Table S2, XDR clinical isolate; NaCl content of medium not stated; read-out: Minimum inhibitory concentration
Experimental: as §1

E. cloacae (XDR CI 4172) = test: microbe, parasite or virus in culture; format: cell-based, Enterobacter cloacae; conditions: Enterobacter cloacae; Table S2, XDR clinical isolate; NaCl content of medium not stated; read-out: Minimum inhibitory concentration
Experimental: as §1

[6] = system: in vitro translation of EGFP, E. coli BL21 Star (DE3) cell lysate; test: Cell-free protein expression assay (EGFP); format: biochemical, Escherichia coli; conditions: EGFP fluorescence, 1.5 h, 30°C
Experimental: The cell lysate used for translation inhibition assay was prepared using the E. coli BL21 Star (DE3) cell culture grown at 30°C in the 2x YTPG liquid medium (1% yeast extract, 1.6% tryptone, 0.5% NaCl, 22 mM NaH2PO4, 40 mM Na2HPO4, 0.1 M glucose). The chromosome of DE3 strains contains a gene encoding T7 RNA polymerase under control of the lacUV5 promoter. The bacterial culture was grown to OD600 0.8–1.0, then T7 RNA polymerase gene was induced by adding 0.2 mM IPTG. Bacteria were harvested at OD600 5.0–6.0 by centrifugation (3000 g, 30 min, 4°C). The bacterial pellet was washed three times by suspending it in four volumes of wash buffer (10 mM Tris-acetate buffer, pH 8.2, 60 mM potassium glutamate, 14 mM magnesium acetate, 1 mM DTT), then resuspended in one volume of the same buffer (1 ml per 1 g of wet cell mass) and disrupted by sonication at 5–15°C. The total cell lysate was centrifuged at 15000 g (30 min, 4°C). The supernatant was split into aliquots and stored at -70°C.
In order to investigate the effect of AMPs on the translation process, the peptides were added to a cell-free protein synthesis (CFPS) reaction mix with a plasmid encoding EGFP variant (F64L, S65T, Q80R, F99S, M153T, and V163A) under a control of the T7 promoter. The reaction mix consisted of the following components: 1.2 mM ATP, 0.8 mM UTP, 0.8 mM GTP, 0.8 mM CTP, 2 mM of each of 20 proteinogenic amino acids, 1.5 mM spermidine, 1 mM putrescine dihydrochloride, 0.06647 mM calcium folinate, 170 ng/ml tRNA from the E. coli MRE 600 strain, 0.33 mM NAD, 120 mM HEPES-KOH (pH 8.0), 10 mM ammonium glutamate, 175 mM potassium glutamate, 60 mM glucose, 15 mM magnesium glutamate, 2% PEG 8000, 25% E. coli BL21 Star (DE3) cell lysate, 10 ng/μl plasmid DNA. The reaction volume was 50 μl. […] Fluorescence of the sample without inhibitor was set as the 100% value. […] Fluorescence of the synthesized EGFP was measured with the microplate reader AF2200 (λExc = 488 nm, λEm = 510 nm). […] IC50 values were determined by interpolation from non-linear regression curves using the GraphPad Prism 6.0 software.

**Q.** Which results are given for CC[C@H](C)[C@H](NC(=O)CN)C(=O)NCC(=O)N[C@@H](C)C(=O)N[C@H](C(=O)N[C@@H](CC(C)C)C(=O)N[C@@H](CCCCN)C(=O)N[C@H](C(=O)N[C@@H](CC(C)C)C(=O)N[C@H](C(=O)N[C@H](C(=O)NCC(=O)N[C@@H](CC(C)C)C(=O)N1CCC[C@H]1C(=O)N[C@@H](C)C(=O)N[C@@H](CC(C)C)C(=O)N[C@H](C(=O)N[C@@H](CO)C(=O)N[C@@H](Cc1c[nH]c2ccccc12)C(=O)N[C@H](C(=O)N[C@@H](CCCCN)C(=O)N[C@@H](CCCNC(=N)N)C(=O)N[C@@H](CCCCN)C(=O)N[C@@H](CCCNC(=N)N)C(=O)N[C@@H](CCC(N)=O)C(=O)N[C@@H](CCC(N)=O)C(N)=O)[C@@H](C)CC)[C@@H](C)CC)[C@@H](C)O)[C@@H](C)O)C(C)C)C(C)C [Melittin, reference compound]?
**A.** Minimum inhibitory concentration (K. pneumoniae (CI 287); 0.9% NaCl): 16 µM (≈ 45.5 µg/mL); Minimum inhibitory concentration (K. pneumoniae (CI 287); Without NaCl): 4 µM (≈ 11.4 µg/mL); Minimum inhibitory concentration (B. subtilis B-886; 0.9% NaCl): 0.5 µM (≈ 1.42 µg/mL); Minimum inhibitory concentration (B. subtilis B-886; Without NaCl): 0.5 µM (≈ 1.42 µg/mL); Minimum inhibitory concentration (S. aureus 209P; 0.9% NaCl): 16 µM (≈ 45.5 µg/mL); Minimum inhibitory concentration (S. aureus 209P; Without NaCl): 2 µM (≈ 5.69 µg/mL); Minimum inhibitory concentration (P. aeruginosa PAO1; 0.9% NaCl): 8 µM (≈ 22.8 µg/mL); Minimum inhibitory concentration (P. aeruginosa PAO1; Without NaCl): 4 µM (≈ 11.4 µg/mL); Minimum inhibitory concentration (E. coli C600; 0.9% NaCl): 8 µM (≈ 22.8 µg/mL); Minimum inhibitory concentration (E. coli C600; Without NaCl): 4 µM (≈ 11.4 µg/mL); Minimum inhibitory concentration (E. coli ML-35p; 0.9% NaCl): 8 µM (≈ 22.8 µg/mL); Minimum inhibitory concentration (E. coli ML-35p; Without NaCl): 2 µM (≈ 5.69 µg/mL); Minimum inhibitory concentration (M. luteus B-1314; 0.9% NaCl): 0.5 µM (≈ 1.42 µg/mL); Minimum inhibitory concentration (M. luteus B-1314; Without NaCl): 0.25 µM (≈ 0.712 µg/mL); MIC ([1]; 0.9% NaCl, Mueller-Hinton broth, 10^6 CFU/ml, 0.1% BSA, 37°C, 24 h, median of at least 3 experiments): 8 µM (≈ 22.8 µg/mL); MIC ([1]; Without NaCl, Mueller-Hinton broth, 10^6 CFU/ml, 0.1% BSA, 37°C, 24 h, median of at least 3 experiments): 2 µM (≈ 5.69 µg/mL); concentrations that completely damaged all the cells tested [2]: < 2500 nM

**Q.** For C[C@@H](O)[C@H]1C(=O)N2C(C(=O)O)=C(S[C@@H]3CN[C@H](C(=O)N(C)C)C3)[C@H](C)[C@H]12 [Meropenem, reference compound], which MIC [3] is on record?
**A.** 64 µM (≈ 24.5 µg/mL)

**Q.** What about the MIC [4] of the same compound?
**A.** > 128 µM

**Q.** What about the MIC ([1]; Acinetobacter baumannii, Table S2, XDR clinical isolate, NaCl content of medium not stated) of the same compound?
**A.** 0.5 µM (≈ 0.192 µg/mL)

**Q.** And the MIC (E. coli (XDR CI 1057))?
**A.** 0.125 µM (≈ 0.0479 µg/mL)

**Q.** And the MIC [5]?
**A.** 16 µM (≈ 6.14 µg/mL)

**Q.** And the MIC (E. cloacae (XDR CI 4172))?
**A.** 0.5 µM (≈ 0.192 µg/mL)

**Q.** With [H]/N=C(/N)N[C@H]1[C@H](O)[C@@H](O)[C@H](O[C@@H]2O[C@@H](C)[C@](O)(C=O)[C@H]2O[C@@H]2O[C@@H](CO)[C@H](O)[C@@H](O)[C@@H]2NC)[C@@H](N/C(N)=N\[H])[C@@H]1O [streptomycin] as the compound, how does the “concentration of full inhibition of in vitro protein synthesis” value [6] read?
**A.** > 1 µM

**Q.** What about the IC50 ([6]; at least 3 independent experiments, read-out: IC50, inhibition of in vitro protein synthesis) of the same compound?
**A.** 200 nM

**Q.** For KWCFRVCYRGICYRRCR [Tachyplesin-1], which “inhibition of protein biosynthesis, in words” value [6] is on record?
**A.** comparable level of inhibition
